Results from patent publication US7135467B2, “HIV integrase inhibitors” (priority 2003, dated 2006).

The molecules below were run against T1, HIV-integrase (recombinant integrase) (Human immunodeficiency virus type 1 group M subtype B, UniProt P12497) (assay: HIV-Integrase Inhibition Activity (SPA bead strand-transfer assay)). Conditions: recombinant integrase on biotin labeled substrate DNA/SPA beads, P33 labeled target DNA; read-out: Activity (IC50 against HIV-integrase).
T1 construct: Recombinant integrase (0.26 ng) was incubated with the beads
Type: biochemical
Method: To evaluate in-vitro activity against HIV-integrase, 5 pmole of biotin labeled substrate DNA was bound to 100 μg of Streptavidin coated PVT SPA beads (Amersham Pharmacia Biotech). Recombinant integrase (0.26 ng) was incubated with the beads for 90 min at 37° C. Unbound enzyme was removed by washing the complex followed by addition of inhibitors and 0.1 fmol of P33 labeled target DNA. The reaction was stopped by adding EDTA to a final concentration of 10 mM. Samples were counted in TopCountNXT (Packard) and the CPM was used as a measure of integration. The reaction condition was as described in A. Engelman and R. Craigie, J. Virol. 69, 5908–5911 (1995). The sequences of substrate and target DNA were described in Nucleic Acid Research 22, 1121–1122 (1994). Activity equal to A refers to a compound having IC50=0.003 to 0.10 μM while B and C denote compounds the following IC50=0.1 to 1.0 μM and IC50≧1.0 μM respectively.
Molecule Cc1cc(CNC(=O)c2nc(N3CCN(CCO)CC3)n(C)c(=O)c2O)ccc1F [Compound 68, N-[(4-fluoro-3-methylphenyl)methyl]-1,6-dihydro-5-hydroxy-2-[4-(2-hydroxyethyl)-1-piperazinyl]-1-methyl-6-oxo-4-pyrimidinecarboxamide] has an IC50 of 3 to 100 nM. Cn1c(N2CCCCS2(=O)=O)nc(C(=O)NCc2ccc(F)c(C(F)(F)F)c2)c(O)c1=O [Compound 20, N-[[4-fluoro-3-(trifluoromethyl)phenyl]methyl]-1,6-dihydro-5-hydroxy-1-methyl-6-oxo-2-(tetrahydro-1,1-dioxido-2H-1,2-thiazin-2-yl)-4-pyrimidinecarboxamide] showed an IC50 of 3 to 100 nM. In the case of Cn1c(N2CCCCS2(=O)=O)nc(C(=O)NCc2ccc(C(F)(F)F)cc2)c(O)c1=O [Compound 32, 1,6-dihydro-5-hydroxy-1-methyl-6-oxo-2-(tetrahydro-1,1-dioxido-2H-1,2-thiazin-2-yl)-N-[[4-(trifluoromethyl)phenyl]methyl]-4-pyrimidinecarboxamide], the IC50 is reported as 100 to 1000 nM. Cc1ccc(CCNC(=O)c2nc(N3CCCCS3(=O)=O)n(C)c(=O)c2O)cc1 [Compound 40, 1,6-dihydro-5-hydroxy-1-methyl-N-[2-(4-methylphenyl)ethyl]-6-oxo-2-(tetrahydro-1,1-dioxido-2H-1,2-thiazin-2-yl)-4-pyrimidinecarboxamide] gave an IC50 of at least 1000 nM. For Cn1c(N2CCCCC2CO)nc(C(=O)NCc2ccc(F)cc2)c(O)c1=O (stereo not shown) [Compound 96, 4-pyrimidineN-[(4-fluorophenyl)methyl]-1,6-dihydro-5-hydroxy-2-[2-(hydroxymethyl)-1-piperidinyl]-1-methyl-6-oxo-carboxamide], the IC50 was 100 to 1000 nM. With Cn1c(N2CCCCS2(=O)=O)nc(C(=O)NCCc2cccc(F)c2)c(O)c1=O [Compound 21, N-[2-(3-fluorophenyl)ethyl]-1,6-dihydro-5-hydroxy-1-methyl-6-oxo-2-(tetrahydro-1,1-dioxido-2H-1,2-thiazin-2-yl)-4-pyrimidinecarboxamide] the IC50 was at least 1000 nM. COc1ccccc1CNC(=O)c1nc(N2CCCCS2(=O)=O)n(C)c(=O)c1O [Compound 24, 1,6-dihydro-5-hydroxy-N-[(2-methoxyphenyl)methyl]-1-methyl-6-oxo-2-(tetrahydro-1,1-dioxido-2H-1,2-thiazin-2-yl)-4-pyrimidinecarboxamide] showed an IC50 of 3 to 100 nM. Cc1cc(CNC(=O)c2nc(N3CCN(c4ccccc4)CC3)n(C)c(=O)c2O)ccc1F [Compound 80, N-[(4-fluoro-3-methylphenyl)methyl]-1,6-dihydro-5-hydroxy-1-methyl-6-oxo-2-(4-phenyl-1-piperazinyl)-4-pyrimidinecarboxamide] was tested, and the IC50 was 3 to 100 nM. Cn1c(N2CCC2)nc(C(=O)NCc2ccc(F)cc2)c(O)c1=O [Compound 92, 2-(1-azetidinyl)-N-[(4-fluorophenyl)methyl]-1,6-dihydro-5-hydroxy-1-methyl-6-oxo-4-pyrimidinecarboxamide] gave an IC50 of 3 to 100 nM. Cn1c(N2CCCCS2(=O)=O)nc(C(=O)NCc2cccc(C(F)(F)F)c2)c(O)c1=O [Compound 29, 1,6-dihydro-5-hydroxy-1-methyl-6-oxo-2-(tetrahydro-1,1-dioxido-2H-1,2-thiazin-2-yl)-N-[[3-(trifluoromethyl)phenyl]methyl]-4-pyrimidinecarboxamide] showed an IC50 of 3 to 100 nM. In the case of Cc1ccc(CNC(=O)c2nc(N3CCCCS3(=O)=O)n(C)c(=O)c2O)cc1C [Compound 19, N-[(3,4-dimethylphenyl)methyl]-1,6-dihydro-5-hydroxy-1-methyl-6-oxo-2-(tetrahydro-1,1-dioxido-2H-1,2-thiazin-2-yl)-4-pyrimidinecarboxamide], the IC50 is reported as 3 to 100 nM. Molecule Cn1c(-n2ncccc2=O)nc(C(=O)NCc2ccc(F)cc2)c(O)c1=O [Compound 100, N-[(4-fluorophenyl)methyl]-1,6-dihydro-5-hydroxy-1-methyl-6-oxo-2-(6-oxo-1(6H)-pyridazinyl)-4-pyrimidinecarboxamide] has an IC50 of 100 to 1000 nM. With CNC(=O)N1CCN(c2nc(C(=O)NCc3ccc(F)cc3)c(O)c(=O)n2C)CC1 [Compound 87, N-[(4-fluorophenyl)methyl]-1,6-dihydro-5-hydroxy-1-methyl-2-[4-[(methylamino)carbonyl]-1-piperazinyl]-6-oxo-4-pyrimidinecarboxamide] the IC50 was 3 to 100 nM. For COc1cccc(CNC(=O)c2nc(N3CCCCS3(=O)=O)n(C)c(=O)c2O)c1 [Compound 11, 1,6-dihydro-5-hydroxy-N-[(3-methoxyphenyl)methyl]-1-methyl-6-oxo-2-(tetrahydro-1,1-dioxido-2H-1,2-thiazin-2-yl)-4-pyrimidinecarboxamide], the IC50 was 100 to 1000 nM. CCCN1CCN(c2nc(C(=O)NCc3ccc(F)cc3)c(O)c(=O)n2C)CC1 [Compound 73, N-[(4-fluorophenyl)methyl]-1,6-dihydro-5-hydroxy-1-methyl-6-oxo-2-(4-propyl-1-piperazinyl)-4-pyrimidinecarboxamide] was tested, and the IC50 was 3 to 100 nM. In the case of Cn1c(N2CCCCS2(=O)=O)nc(C(=O)NCCCc2ccc(F)cc2)c(O)c1=O [Compound 6, N-[3-(4-fluorophenyl)propyl]-1,6-dihydro-5-hydroxy-1-methyl-6-oxo-2-(tetrahydro-1,1-dioxido-2H-1,2-thiazin-2-yl)-4-pyrimidinecarboxamide], the IC50 is reported as 3 to 100 nM. With Cn1c(N2CCC[C@H]2C(N)=O)nc(C(=O)NCc2ccc(F)cc2)c(O)c1=O [Compound 95, 2-[(2S)-2-(aminocarbonyl)-1-pyrrolidinyl]-N-[(4-fluorophenyl)methyl]-1,6-dihydro-5-hydroxy-1-methyl-6-oxo-4-pyrimidinecarboxamide] the IC50 was 3 to 100 nM. Cc1cc(CNC(=O)c2nc(N3CCN(C(=O)N4CCNC4=O)CC3)n(C)c(=O)c2O)ccc1F [Compound 86, N-[(4-fluoro-3-methylphenyl)methyl]-1,6-dihydro-5-hydroxy-1-methyl-6-oxo-2-[4-[(2-oxo-1-imidazolidinyl)carbonyl]-1-piperazinyl]-4-pyrimidinecarboxamide] was tested, and the IC50 was 3 to 100 nM. Cn1c(N2CCN(CCO)CC2)nc(C(=O)NCc2ccc(F)cc2)c(O)c1=O [Compound 67, N-[(4-fluorophenyl)methyl]-1,6-dihydro-5-hydroxy-2-[4-(2-hydroxyethyl)-1-piperazinyl]-1-methyl-6-oxo-4-pyrimidinecarboxamide] gave an IC50 of 3 to 100 nM. Cc1cc(CNC(=O)c2nc(N3CCCCC3CO)n(C)c(=O)c2O)ccc1F (stereo not shown) [Compound 97, N-[(4-fluoro-3-methylphenyl)methyl]-1,6-dihydro-5-hydroxy-2-[2-(hydroxymethyl)-1-piperidinyl]-1-methyl-6-oxo-4-pyrimidinecarboxamide] was tested, and the IC50 was 3 to 100 nM. CCCN1CCN(c2nc(C(=O)NCc3ccc(F)c(C)c3)c(O)c(=O)n2C)CC1 [Compound 74, N-[(4-fluoro-3-methylphenyl)methyl]-1,6-dihydro-5-hydroxy-1-methyl-6-oxo-2-(4-propyl-1-piperazinyl)-4-pyrimidinecarboxamide] gave an IC50 of 3 to 100 nM. Work on Cc1cc(CNC(=O)c2nc(N3CCN(c4ncccn4)CC3)n(C)c(=O)c2O)ccc1F [Compound 78, N-[(4-fluoro-3-methylphenyl)methyl]-1,6-dihydro-5-hydroxy-1-methyl-6-oxo-2-[4-(2-pyrimidinyl)-1-piperazinyl]-4-pyrimidinecarboxamide] yielded an IC50 of 3 to 100 nM. COc1ccccc1CCNC(=O)c1nc(N2CCCCS2(=O)=O)n(C)c(=O)c1O [Compound 38, 1,6-dihydro-5-hydroxy-N-[2-(2-methoxyphenyl)ethyl]-1-methyl-6-oxo-2-(tetrahydro-1,1-dioxido-2H-1,2-thiazin-2-yl)-4-pyrimidinecarboxamide] was tested, and the IC50 was at least 1000 nM. For COc1ccc(CNC(=O)c2nc(N3CCCCS3(=O)=O)n(C)c(=O)c2O)c(OC)c1 [Compound 22, N-[(2,4-dimethoxyphenyl)methyl]-1,6-dihydro-5-hydroxy-1-methyl-6-oxo-2-(tetrahydro-1,1-dioxido-2H-1,2-thiazin-2-yl)-4-pyrimidinecarboxamide], the IC50 was 3 to 100 nM. Cn1c(N2CCCCS2(=O)=O)nc(C(=O)NCCc2c[nH]c3ccccc23)c(O)c1=O [Compound 49, 1,6-dihydro-5-hydroxy-N-[2-(1H-indol-3-yl)ethyl]-1-methyl-6-oxo-2-(tetrahydro-1,1-dioxido-2H-1,2-thiazin-2-yl)-4-pyrimidinecarboxamide] was tested, and the IC50 was at least 1000 nM. Molecule Cc1cccc(CNC(=O)c2nc(N3CCCCS3(=O)=O)n(C)c(=O)c2O)c1 [Compound 9, 1,6-dihydro-5-hydroxy-1-methyl-N-[(3-methylphenyl)methyl]-6-oxo-2-(tetrahydro-1,1-dioxido-2H-1,2-thiazin-2-yl)-4-pyrimidinecarboxamide] has an IC50 of 3 to 100 nM. In the case of Cn1c(N2CCCCS2(=O)=O)nc(C(=O)NCc2cc(F)cc(F)c2)c(O)c1=O [Compound 47, N-[(3,5-difluorophenyl)methyl]-1,6-dihydro-5-hydroxy-1-methyl-6-oxo-2-(tetrahydro-1,1-dioxido-2H-1,2-thiazin-2-yl)-4-pyrimidinecarboxamide], the IC50 is reported as 100 to 1000 nM. With Cn1c(N2Cc3ccc(F)cc3C2=O)nc(C(=O)NCc2ccc(F)cc2)c(O)c1=O [Compound 102, 2-(6-fluoro-1,3-dihydro-1-oxo-2H-isoindol-2-yl)-N-[(4-fluorophenyl)methyl]-1,6-dihydro-5-hydroxy-1-methyl-6-oxo-4-pyrimidinecarboxamide] the IC50 was 3 to 100 nM.
